Assay results reported in patent US20080318847A1, “Use of Antagonist of Oxytocin and/or Vasopressin in Assisted Reproduction” (Ferring International Center SA, priority 2005, published 2008).
“Also recorded” adds a separate entry of the source. Bridge positions count the residues as written; N and C are the ends. Square brackets hold non-standard residues; d marks the D form. Peptide text beside a SMILES is read from it. Orn = NCCC[C@H](N)C(=O)O; Mpa = O=C(O)CCS

How the values were obtained:
[1] = system: uterine contractile activity; test: Transvaginal sonography of uterine contractile activity before and during atosiban infusion at embryo transfer (IVF-ET patient); assay type: in vivo, human
Description: FIG. 1 presents a graph on uterine contractile activity assessed by transvaginal sonography in patient which case is described in example 1. Uterine contractions on graph B and C are marked with light color for better visualization. In the method of digital image analysis, due to the requirement of a high picture quality, a period of 4 minutes out of total 5 minutes recorded was selected for analysis. • A) Schematic presentation of a principle of non invasive assessment of uterine contractility (done similarly to Fanchin et al. [Hum. Reprod. 1998; 13(7):1968-74]) Description: U—uterus, En—endometrium (the inner layer of the uterus)—during the uterine contractions, changes in texture and contour of endometrium are observed, My—myometrium (the middle layer of uterus, built of smooth muscle tissue), T—testing segment, where movements of contour of endometrium representing the uterine contractile activity are assessed • B) Graph presenting uterine contractile activity before the application of oxytocin antagonist atosiban. Contractile hyperactivity is seen. Legend: ↑—uterine contraction, 1 min—segment representing 1 min of digital recording, T—testing segment, where movements of contour of endometrium reflecting the uterine contractile activity are assessed; C) Graph presenting uterine contractile activity in the time of maximal effect of oxytocin antagonist atosiban. […] Legend: ↑—uterine contraction, 1 min—segment representing 1 min of digital recording, T—testing segment, where movements of contour of endometrium reflecting the uterine contractile activity are assessed
In the 8th cycle of the treatment, a decision on application of a medicament containing atosiban (antagonist of oxytocin and vasopressin) was drawn, aiming to improve the uterine receptivity. The medicament was given in intravenous infusion, which started 60 minutes before the transfer and was continued throughout 2 hours after the transfer. […]

[2] = system: uterine receptivity at the embryo transfer; test: Clinical application of atosiban at embryo transfer (IVF-ET): outcome and tolerability; assay type: in vivo, human
Excerpt: Clinical application of medicament containing atosiban—an antagonist of oxytocin and vasopressin for increasing the uterine receptivity at the embryo transfer in the course of assisted reproduction procedure of IVF-ET (in vitro fertilization-embryo transfer).
In the 8th cycle of the treatment, a decision on application of a medicament containing atosiban (antagonist of oxytocin and vasopressin) was drawn, aiming to improve the uterine receptivity. The medicament was given in intravenous infusion, which started 60 minutes before the transfer and was continued throughout 2 hours after the transfer. 10 minutes before the start of administration (70 minutes before the transfer) transvaginal sonography with 5-minute digital registration of uterine contractions was performed. […] Immediately after, a continuous infusion of 18 mg/hour of atosiban was connected using the infusion pump and was continued throughout the next 60 minutes. 45 minutes after the initiation of the infusion, transvaginal sonography with digital image registration was repeated. Between 55th and 60th minute of infusion, a sonography-guided transfer of 2 embryos was performed. After the transfer, the dosage of atosiban was changed to 6 mg/hour. Infusion was finished 2 hours after the transfer, total dose administered was 37.5 mg.
The mode of application of atosiban described above provided the maximal effect at the time of embryo transfer (it was proven that stable concentrations of atosiban are reached about an hour after the initiation of the infusion). Patient stayed in horizontal position until an hour after termination of the infusion and limited their activities on that day. At the control visit done 2 weeks after the embryo transfer, a pregnancy test was done with positive result.

[3] = after the initiation of the intravenous infusion; cited from earlier work
[4] = clinical use in preterm labor; cited from earlier work
[5] = system: human sperm; test: Human Sperm Motility Bioassay (embryotoxicity); assay type: cell-based
Description: In order to verify the embryotoxicity of atosiban a study on influence of atosiban on parameters of human sperm motility was performed (Human Sperm Motility Bioassay). The technique used in the study is a standard in the quality control and evaluation of embryotoxicity in IVF laboratories.
The study was performed on samples of fresh human sperm taken from 15 healthy donors with perfect seminologic parameters. After selecting the alive and motile population (swim-up ascending migration method), sperm samples were transferred to the sterile Eppendorf tubes containing Human Sperm Preparation Medium alone or with atosiban in concentrations of 300 nM, 1000 nM, 3000 nM, last concentrations being 10-fold to maximal concentrations achieved in humans in the course of treatment of preterm labor. Sperm motility assessment was performed with computer assisted sperm analyzer Hobson Sperm Tracker in the 1st, 8th and 24th hour of exposition to atosiban.
Following parameters were analyzed:
a) percentage of actively motile sperm cells (Active %); b) percentage of motile sperm cells (Motility %); c) percentage of hyperactively motile sperm cells (Hyper %), d) VSL—straight line velocity, e) VCL—total velocity, f) ALH—amplitude of lateral head displacements. Results are presented at FIG. 2 and FIG. 3. In the statistic analysis, analysis of variance (ANOVA) was applied.

[6] = system: uterine contractile activity; settings: non pregnant humans, vasopressin administrations VAS-1 to VAS-3; Bossmar et al.; cited from earlier work
[7] = target: vasopressin V1a receptors (Homo sapiens, UniProt P37288); settings: V1a versus oxytocin receptors; cited from earlier work
[8] = system: human pregnant myometrium; settings: cited from earlier work
[9] = in vivo; cited from earlier work
[10] = atosiban 300 nM, 1000 nM, 3000 nM, 1st, 8th and 24th hour, ANOVA

Sequence of vasopressin V1a receptors (P37288 whole entry): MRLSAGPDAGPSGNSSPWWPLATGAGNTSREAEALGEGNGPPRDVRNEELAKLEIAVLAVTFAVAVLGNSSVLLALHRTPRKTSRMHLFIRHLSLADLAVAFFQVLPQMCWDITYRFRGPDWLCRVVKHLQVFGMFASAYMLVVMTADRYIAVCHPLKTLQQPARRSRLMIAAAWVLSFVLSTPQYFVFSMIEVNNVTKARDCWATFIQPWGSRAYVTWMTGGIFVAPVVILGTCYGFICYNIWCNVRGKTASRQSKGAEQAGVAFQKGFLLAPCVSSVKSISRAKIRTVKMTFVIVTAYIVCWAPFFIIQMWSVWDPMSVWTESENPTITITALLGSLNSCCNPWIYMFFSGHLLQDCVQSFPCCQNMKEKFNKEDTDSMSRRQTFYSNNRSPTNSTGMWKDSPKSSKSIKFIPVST

CCOc1ccc(C[C@H]2NC(=O)CCSSC[C@@H](C(=O)N3CCC[C@H]3C(=O)N[C@@H](CCCN)C(=O)NCC(N)=O)NC(=O)[C@H](CC(N)=O)NC(=O)[C@H]([C@@H](C)O)NC(=O)[C@H]([C@@H](C)CC)NC2=O)cc1 [atosiban] ([Mpa][dY](Et)ITNCP[Orn]G-NH2; disulfide 1-6)
uterine contractions, method II (digital analysis of displacements of endometrial contour) ([1]; after the administration of atosiban i.v. (stable blood levels), 11 contractions/4 min before administration): 7 contractions/4 min | uterine contractions, method I (inspection and manual registration of contractions on an accelerated film sequence) ([1]; after the administration of atosiban i.v. (stable blood levels, 45 minutes after initiation of infusion), 15 contractions/5 min before administration): 8 contractions/5 min | uterine contractile activity (change versus before atosiban) ([1]; time of maximal effect / stable blood levels of atosiban): notably decreased; also recorded: significant reduction | pregnancy test ([2]; 2 weeks after the embryo transfer, atosiban 6.75 mg bolus, 18 mg/hour then 6 mg/hour i.v.): positive | transvaginal sonography finding ([2]; 4 weeks after the transfer): intrauterine, normal twin pregnancy | adverse reactions ([2]; bolus dose of 6.75 mg intravenously, 60 minutes before the transfer): no adverse reactions | time until stable concentrations are reached [3]: about an hour | side effects [4]: minimal side effects | percentages of actively motile, motile and hyperactively motile sperm (Active %, Motility %, Hyper %) versus control [5, 10]: No significant differences | sperm movement parameters (VCL, VSL, ALH) versus control [5, 10]: no significant differences | parameters of human sperm motility (Active %, Motility %, Hyper %, VSL, VCL, ALH) versus control samples ([5]; atosiban 300 nM, 1000 nM, 3000 nM, in vitro, ANOVA): does not inhibit; also recorded: No significant differences | embryotoxicity (concluded from sperm motility bioassay) ([5]; atosiban up to 3000 nM): lacks embryotoxic potential; also recorded: lack of embryotoxicity

COc1ccc(S(=O)(=O)N2c3ccc(Cl)cc3[C@](O)(c3ccccc3Cl)[C@@H]2C(=O)N2CCC[C@H]2C(N)=O)cc1OC [relcovaptan]
uterine contractility (area under curve of intrauterine pressure) relative to placebo [6]: decreasing the uterine contractility | receptor affinity profile [7]: greater affinity towards vasopressin V1a receptors as compared to oxytocin receptors

barusiban
inhibition of contractile activity ([8]; in the range of oxytocin concentrations that occur in humans): total inhibition | potency as inhibitor of uterine contractions compared to atosiban ([8]; in vitro): more potent | myometrium contractile activity after administration ([8]; oxytocin stimulated, in vitro, Pierzynski et al.): significantly reduced | estimated half time of a single dose [9]: 7 h
